Drawing on PubChem BioAssay (NCI), this text covers GI50 and TGI for 14 molecules.

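Growth conditions: 96-well plates. Treatment: test compound, 48 hours, 5 concentrations. Analysis: linear interpolation between bracketing concentrations; unreached endpoints set to highest concentration. GI50 marks 50% less growth. Definition used: TGI = concentration required for complete inhibition of growth.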

Some test systems named below: 786-0 renal; HL-60(TB) leukemia; HOP-92 NSCLC; M14 melanoma; NCI-H226 lung; NCI/ADR-RES ovarian; OVCAR-3 ovarian; OVCAR-4 ovarian; SF-539 CNS; SK-MEL-28 melanoma.
Assay in all cases: NCI-60 cell line screen, 48 h

In the case of `Cc1ccccc1NC(=O)c1sc2nc3c(cc2c1N)C(=O)CCC3`, the GI50 with 786-0 renal was 9.02 µM; in the assay on HL-60(TB) leukemia, 3.1 µM; in the assay on HOP-92 NSCLC, above 100 µM; in the assay with M14 melanoma it was 2.27 µM; in the assay on NCI-H226 lung, 37.6 µM; with NCI/ADR-RES ovarian it was 2.23 µM. Also, the GI50 with OVCAR-3 ovarian was 1.76 µM; in the assay with OVCAR-4 ovarian it was 6.21 µM; with SF-539 CNS, 2.13 µM; with SK-MEL-28 melanoma, 1.83 µM. For the same molecule, the TGI in the assay with 786-0 renal, in the assay on HL-60(TB) leukemia, with HOP-92 NSCLC, in the assay with M14 melanoma, in the assay on NCI-H226 lung and in the assay on NCI/ADR-RES ovarian was above 100 µM throughout. Besides, the TGI in the assay on OVCAR-3 ovarian is 4.45 µM; in the assay on OVCAR-4 ovarian, above 100 µM; with SF-539 CNS it was 8.1 µM; with SK-MEL-28 melanoma, above 100 µM.

As to `N#CC(=S)Nc1ccc(F)cc1`, the TGI in the assay on 786-0 renal is above 100 µM; in the assay on HL-60(TB) leukemia, 91.3 µM; in the assay with HOP-92 NSCLC, 68.3 µM; with M14 melanoma it was above 100 µM; in the assay with NCI-H226 lung, above 100 µM; in the assay on NCI/ADR-RES ovarian, above 100 µM. Moreover, the TGI in the assay with OVCAR-3 ovarian, with OVCAR-4 ovarian, in the assay on SF-539 CNS and in the assay on SK-MEL-28 melanoma was above 100 µM each time.

In the case of `COc1ccc2sc3c(NCCCNCCO)nc4ccccc4c3c(=O)c2c1`, the GI50 was 1.38 µM in the assay with 786-0 renal; 1.98 µM with HL-60(TB) leukemia; 1.35 µM in the assay on HOP-92 NSCLC; 1.82 µM with M14 melanoma; 2.09 µM in the assay on NCI-H226 lung; 1.76 µM in the assay on NCI/ADR-RES ovarian. Besides, the GI50 is 1.74 µM with OVCAR-3 ovarian, 1.94 µM in the assay with OVCAR-4 ovarian, 1.65 µM in the assay on SF-539 CNS and 1.8 µM in the assay on SK-MEL-28 melanoma. Also, the TGI in the assay with 786-0 renal was 2.82 µM; in the assay with HL-60(TB) leukemia it was 3.89 µM; in the assay with HOP-92 NSCLC, 6.74 µM; in the assay with M14 melanoma, 3.48 µM; in the assay with NCI-H226 lung it was 3.75 µM; in the assay with NCI/ADR-RES ovarian it was 3.53 µM. In addition, the TGI in the assay with OVCAR-3 ovarian is 3.21 µM; with OVCAR-4 ovarian, 4.09 µM; in the assay on SF-539 CNS, 3.1 µM; with SK-MEL-28 melanoma it was 3.27 µM.

Take `CC1(C)CC[C@]2(C(=O)O)CC[C@]3(C)[C@H](CC[C@@H]4[C@@]5(C)CCC(=O)C(C)(C)[C@@H]5CC[C@]43C)[C@H]2[C@H]1OC(=O)C(F)(F)F`: the GI50 is 14.3 µM in the assay with 786-0 renal; 3.16 µM in the assay on HL-60(TB) leukemia; 8.08 µM with HOP-92 NSCLC; 8.34 µM in the assay on M14 melanoma; 13.5 µM with NCI-H226 lung; 12.3 µM in the assay with NCI/ADR-RES ovarian. Besides, the GI50 in the assay on OVCAR-3 ovarian is 12.4 µM; with OVCAR-4 ovarian, 13.1 µM; in the assay with SF-539 CNS, 5.34 µM; in the assay on SK-MEL-28 melanoma, 13.6 µM. Further, the TGI with 786-0 renal came to 29.5 µM; with HL-60(TB) leukemia it was 13.6 µM; in the assay on HOP-92 NSCLC, 22.6 µM; in the assay with M14 melanoma it was 27 µM; in the assay with NCI-H226 lung it was 34 µM; with NCI/ADR-RES ovarian, 26.2 µM. For the same molecule, the TGI in the assay with OVCAR-3 ovarian stood at 26.4 µM; with OVCAR-4 ovarian, 29.8 µM; in the assay with SF-539 CNS, 18.1 µM; in the assay on SK-MEL-28 melanoma, 28.2 µM.

On to `CC(C)(C)n1cc(-c2ccnc(NCCNS(=O)(=O)c3cccc4ccccc34)c2)c(-c2cccc(F)c2)n1`, for which the GI50 was 2.44 µM in the assay with 786-0 renal; 17.5 µM in the assay with HL-60(TB) leukemia; 2.74 µM in the assay on HOP-92 NSCLC; 11.7 µM in the assay on M14 melanoma; 12.2 µM in the assay on NCI-H226 lung; 21.4 µM with NCI/ADR-RES ovarian. Besides, the GI50 with OVCAR-3 ovarian was 15.4 µM; in the assay with OVCAR-4 ovarian, 14.6 µM; in the assay on SF-539 CNS, 16.1 µM; in the assay on SK-MEL-28 melanoma it was 16.6 µM. Further, the TGI is 6.75 µM in the assay on 786-0 renal; 44.5 µM in the assay on HL-60(TB) leukemia; 21.2 µM in the assay on HOP-92 NSCLC; 48.2 µM in the assay with M14 melanoma; 43.4 µM with NCI-H226 lung; above 100 µM in the assay on NCI/ADR-RES ovarian. The TGI came out at 30.4 µM in the assay on OVCAR-3 ovarian, 53.7 µM with OVCAR-4 ovarian, 31.7 µM in the assay with SF-539 CNS and 37 µM with SK-MEL-28 melanoma.

Regarding `CC(C)[C@@H](CS(=O)(=O)C(C)C)N1C(=O)[C@@](C)(CC(=O)O)C[C@H](c2cccc(Cl)c2)[C@H]1c1ccc(Cl)cc1`, the GI50 was 20.8 µM with 786-0 renal; 17.7 µM in the assay with HL-60(TB) leukemia; 12.9 µM with HOP-92 NSCLC; 14.1 µM in the assay with M14 melanoma; 0.193 µM in the assay on NCI-H226 lung; 24.7 µM in the assay on NCI/ADR-RES ovarian. Besides, the GI50 with OVCAR-3 ovarian was 12.4 µM; in the assay with OVCAR-4 ovarian, 7.45 µM; in the assay with SF-539 CNS, 14 µM; with SK-MEL-28 melanoma, 15.5 µM. Further, the TGI with 786-0 renal was 75.2 µM; in the assay with HL-60(TB) leukemia, 46.8 µM; in the assay with HOP-92 NSCLC it was 36.3 µM; with M14 melanoma, 59.6 µM; with NCI-H226 lung, 0.422 µM; in the assay on NCI/ADR-RES ovarian, above 100 µM. Further, the TGI in the assay on OVCAR-3 ovarian was 33 µM; in the assay with OVCAR-4 ovarian, above 75.9 µM; with SF-539 CNS it was 35.9 µM; in the assay with SK-MEL-28 melanoma it was 61.2 µM.

In the case of `COc1ccc(Nc2c[nH]c(=O)[nH]c2=O)cc1`, the TGI in the assay with 786-0 renal, with HL-60(TB) leukemia, in the assay on HOP-92 NSCLC, in the assay on M14 melanoma, in the assay with NCI-H226 lung and in the assay with NCI/ADR-RES ovarian was above 100 µM each time. For the same molecule, the TGI with OVCAR-3 ovarian, with OVCAR-4 ovarian, in the assay on SF-539 CNS and with SK-MEL-28 melanoma was above 100 µM throughout.

As to `CC(C)(CCC(C)(C)c1ccccc1)c1ccccc1`, the TGI worked out at 29.5 µM in the assay with 786-0 renal; 32.5 µM with HL-60(TB) leukemia; 37.9 µM in the assay on HOP-92 NSCLC; 52.7 µM in the assay on M14 melanoma; 37.6 µM in the assay on NCI-H226 lung; 36.9 µM in the assay with NCI/ADR-RES ovarian. Further, the TGI with OVCAR-3 ovarian stood at 31 µM; in the assay on OVCAR-4 ovarian it was 39.7 µM; in the assay with SF-539 CNS, 43.6 µM; with SK-MEL-28 melanoma, 42.7 µM.

For `CC(C)(C)c1nnc2n(c1=O)N=CC(c1ccc(Br)cc1)S2` (stereo not given), the GI50 was 32.3 µM in the assay on 786-0 renal; 39 µM with HL-60(TB) leukemia; 40.9 µM in the assay with HOP-92 NSCLC; 24.4 µM in the assay on M14 melanoma; 21.4 µM with NCI-H226 lung; 26.4 µM in the assay with NCI/ADR-RES ovarian. Moreover, the GI50 with OVCAR-3 ovarian is 21.8 µM; in the assay on OVCAR-4 ovarian, 33.9 µM; in the assay on SF-539 CNS, 19.7 µM; in the assay with SK-MEL-28 melanoma it was 34.2 µM. Besides, the TGI was above 100 µM with 786-0 renal; above 100 µM with HL-60(TB) leukemia; above 100 µM with HOP-92 NSCLC; 63.1 µM in the assay with M14 melanoma; 51 µM with NCI-H226 lung; 61.6 µM with NCI/ADR-RES ovarian. For the same molecule, the TGI with OVCAR-3 ovarian was 70.8 µM; with OVCAR-4 ovarian, above 100 µM; in the assay with SF-539 CNS it was 50.9 µM; in the assay on SK-MEL-28 melanoma it was above 100 µM.

As to `O=[N+]([O-])c1ccc2c(c1)S(=O)c1ccccc1-2` (stereo not given), the TGI with 786-0 renal, in the assay on HL-60(TB) leukemia, in the assay with HOP-92 NSCLC, in the assay on M14 melanoma, in the assay with NCI-H226 lung and in the assay on NCI/ADR-RES ovarian was above 100 µM each time. In addition, the TGI with OVCAR-3 ovarian, in the assay with OVCAR-4 ovarian, with SF-539 CNS and with SK-MEL-28 melanoma was above 100 µM each time.

Regarding `COP1(=S)OCC2CCC[C@@H]2O1` (stereo not given in full), the TGI in the assay on 786-0 renal, in the assay on HL-60(TB) leukemia, in the assay with HOP-92 NSCLC, in the assay on M14 melanoma, with NCI-H226 lung and with NCI/ADR-RES ovarian was above 100 µM each time. For the same molecule, the TGI in the assay with OVCAR-3 ovarian, with OVCAR-4 ovarian, with SF-539 CNS and in the assay on SK-MEL-28 melanoma was above 100 µM each time.

For the molecule `CN1CCN(c2cc(Nc3cc(C4CC4)[nH]n3)nc(Nc3ccc(CC(=O)NCc4cccc(F)c4)cc3)n2)CC1`, the GI50 in the assay on 786-0 renal is 0.934 µM; in the assay on HL-60(TB) leukemia it was 0.713 µM; with HOP-92 NSCLC, 0.288 µM; in the assay on M14 melanoma it was 0.752 µM; in the assay with NCI-H226 lung, 0.534 µM; in the assay on NCI/ADR-RES ovarian, 18.8 µM. In addition, the GI50 with OVCAR-3 ovarian was 1.59 µM; with OVCAR-4 ovarian, 1.55 µM; in the assay with SF-539 CNS, 0.858 µM; in the assay on SK-MEL-28 melanoma, 0.971 µM. Also, the TGI is 4.04 µM in the assay with 786-0 renal; 3.06 µM in the assay with HL-60(TB) leukemia; 4.8 µM in the assay with HOP-92 NSCLC; 2.41 µM in the assay on M14 melanoma; 10.9 µM in the assay with NCI-H226 lung; above 100 µM in the assay with NCI/ADR-RES ovarian. Besides, the TGI in the assay with OVCAR-3 ovarian is 16.5 µM; in the assay on OVCAR-4 ovarian it was 22 µM; with SF-539 CNS, 2.28 µM; with SK-MEL-28 melanoma, 2.46 µM.

Take `OC(C(=Nc1ccccc1)c1ccccc1)c1ccccc1` (stereo not given): the TGI in the assay with 786-0 renal worked out at 41.9 µM; in the assay on HL-60(TB) leukemia, 56.1 µM; in the assay with HOP-92 NSCLC, 21 µM; with M14 melanoma, 39.1 µM; in the assay with NCI-H226 lung, 34.1 µM; in the assay on NCI/ADR-RES ovarian it was 65.7 µM. The TGI in the assay on OVCAR-3 ovarian came to 14.3 µM; in the assay on OVCAR-4 ovarian, 51.8 µM; in the assay with SF-539 CNS it was 25.3 µM; in the assay with SK-MEL-28 melanoma, 15.2 µM.

Take `Cc1nc2ccc(NCCN(C)C)c3c(=O)c4cc(O)ccc4n1c23`: the TGI stood at 10.5 µM in the assay on 786-0 renal; 3.1 µM in the assay with HL-60(TB) leukemia; 6.96 µM with HOP-92 NSCLC; 15.9 µM in the assay on M14 melanoma; 1.7 µM with NCI-H226 lung; 7.29 µM in the assay on NCI/ADR-RES ovarian. Further, the TGI came to 9.94 µM in the assay with OVCAR-3 ovarian, 3.38 µM in the assay with OVCAR-4 ovarian, 12.2 µM with SF-539 CNS and 11.7 µM in the assay with SK-MEL-28 melanoma.
